Values belong to the molecule of their own block, whether it stands above or below them.
Columns and labels:
Pellino-1 = test: Effect of cell stimulation on Pellino-1 localization and cleavage in transfected COS-7 cells; type: cell-based, monkey; settings: for Effect of growth factor incubation on Pellino-1 (cleavage and redistribution): Pellino-1-transfected cells, concentration not given
Protocol: This example describes the effect of stimulation of COS-7 cells transfected with an expression vector encoding FLAG-Pellino-1 with IL-1 or other molecules. Transfected cells are prepared substantially as described above. […] As Drosophila Pellino was identified by its ability to associate with Pelle, experiments in which Pellino is coexpressed with IRAK have been performed to determine if mammalian Pellino interacted with IRAK, the presumptive mammalian counterpart of Pelle.
To determine if the observed redistribution and proteolytic processing of Pellino-1 specifically required IRAK, Pellino-1-transfected cells were stimulated with agents that activate NF-kB by IRAK-independent pathways such as phorbol myristate acetate (PMA, 100 ng/ml), which is known to promote many of the same intracellular signals as IL-1, and TNF-alpha (20 ng/ml). TNF-alpha activates NF-kB through a mechanism involving the adaptor protein TRADD, the kinase RIP, and TRAF2, while PMA stimulates the activity of protein kinase C which is known to cross-talk with the NF-kB pathway. […] In both cases, 2 to 3 hours of exposure to the stimulus was required before significant Pellino cleavage was seen. The total amount of detectable Pellino-1 polypeptide (the sum of soluble and insoluble fractions) was increased in the presence of PMA or TNF-alpha, which presumably reflects a change in the net rates of Pellino-1 synthesis and/or degradation. […] EGF has been reported in some cells to activate NF-kB through the induction of IkB-alpha degradation.

[1] = tested on: NF-kB-dependent reporter gene; test: NF-kB-dependent reporter gene (luciferase) assay in transfected COS cells; type: cell-based, monkey
Description: (§1) The murine Pellino-1 coding sequence DNA was fused, in frame at the 3′ end, to DNA encoding the FLAG epitope, followed by an in-frame stop codon. This construct was cloned into the mammalian expression vector pDC304 (identical to pDC302, described in U.S. Pat. No. 5,599,905, issued Feb. 4, 1997, except that the early splice region, consisting of splice donor and acceptor sites of the SV40 viral element, has been removed); and transfected into an IL-1-responsive line of COS-7 cells by the DEAE-dextran method.
In order to assay the effect of the Pellino-1-FLAG polypeptide and other forms of Pellino polypeptides on reporter gene activity, a method essentially as described in Born et al., 1998, J. Biol. Cheni. 273: 29445–29450 (which is incorporated by reference herein) can be used. As one example of this method, Cos7 cells were transiently transfected by the DEAE-dextran method as described (Cosman et al., 1984, Nature 312: 768–771, which is incorporated by reference herein), using 150 ng of the Pellino polypeptide expression construct and 700 ng of the reporter plasmid per 45,000 cells. Two days post-transfection, cells were stimulated with 10 ng/ml IL-1 or 40 ng/ml IL-18 (PeproTech, Inc.) for 4 hours. Cells were lysed and luciferase activity assessed using Reporter Lysis Buffer and Luciferase Assay Reagent (Promega Corp.). IL-8 promoter-reporter and NFkB-dependent reporter constructs may be used as reporter plasmids. Alternatively, the effect of Pellino polypeptide expression may be assayed in COS-1 cells. In an alternative preferred method, COS7 cells were grown in 12-well dishes as described above. The cells were transiently transfected with Pellino test plasmid, 50 ng of reporter plasmid DNA, and empty vector, as required, to a total of 1 micrograms of total DNA per well. After 24 hours, stimulating agents were added in a small amount (less than 0.5% final volume) of medium or dimethyl sulfoxide, and the cells were re-incubated for 5 hours. Cells were lysed in luciferase Reporter Lysis Buffer (Promega, Madison Wis., 0.25 ml per well) and luciferase activity was measured in a EG & G/Berthold luminometer after addition of Luciferase Assay Reagent (Promega) according to the supplier's instructions. All results were normalized to total protein content of the lysates as measured using the micro-BCA assay (Pierce, Rockford, Ill).

[2] = tested on: Jun N-terminal kinase, p38 kinase, and ERK signaling; test: Jun N-terminal kinase, p38 kinase and ERK signaling mediated by IL-1; type: cell-based
[3] = tested on: IL-8 promoter-reporter gene; test: IL-8 promoter-reporter gene assay in transfected COS cells; type: cell-based, monkey; settings: COS-1 cells; presence and absence of TNF-alpha; compared to vector-only control
Description: as §1
In order to assay the effect of the Pellino-1-FLAG polypeptide and other forms of Pellino polypeptides on reporter gene activity, a method essentially as described in Born et al., 1998, J. Biol. Cheni. 273: 29445–29450 (which is incorporated by reference herein) can be used. […] Cells were lysed and luciferase activity assessed using Reporter Lysis Buffer and Luciferase Assay Reagent (Promega Corp.). […] Cells were lysed in luciferase Reporter Lysis Buffer (Promega, Madison Wis., 0.25 ml per well) and luciferase activity was measured in a EG & G/Berthold luminometer after addition of Luciferase Assay Reagent (Promega) according to the supplier's instructions. All results were normalized to total protein content of the lysates as measured using the micro-BCA assay (Pierce, Rockford, Ill).

Molecule: TNF-alpha
- Time after induction at which cleavage and relocation of Pellino-1 began (Pellino-1; TNF-alpha 20 ng/ml, time-course experiments): about three

Molecule: basic fibroblast growth factor: growth factor
- Effect of growth factor incubation on Pellino-1 (cleavage and redistribution) (Pellino-1): little or no effect

Molecule: epidermal growth factor
- Effect of growth factor incubation on Pellino-1 (cleavage and redistribution) (Pellino-1): very weakly active

Molecule: platelet-derived growth factor
- Effect of growth factor incubation on Pellino-1 (cleavage and redistribution) (Pellino-1): little or no effect

Molecule: transforming growth factor-beta
- Effect of growth factor incubation on Pellino-1 (cleavage and redistribution) (Pellino-1): little or no effect

- Jun N-terminal kinase, p38 kinase, and ERK signaling mediated by IL-1 [2]: moderately augmented
B1: wild-type-FLAG: unaltered murine Pellino-1 (SEQ ID NO:2) fused to the FLAG epitope (protein, listed as Mus musculus)
chain: MFSPDQENHPSKAPVKYGELIVLGYNGSLPNGDRGRRKSRFALFKRPKANGVKPSTVHIACTPQAAKAISNKDQHSISYTLSRAQTVVVEYTHDSNTDMFQIGRSTESPIDFVVTDTVPGSQSNSDTQSVQSTISRFACRIICERSPPFTARIYAAGFDSSKNIFLGEKAAKWKTSDGQMDGLTTNGVLVMHPRNGFTEDSKPGIWREISVCGNVFSLRETRSAQQRGKMVEIETNQLQDGSLIDLCGATLLWRTAEGLSHTPTVKHLEALRQEINAARPQCPVGFNTLAFPSMKRKDVVDEKQPWVYLNCGHVHGYHNWGNKEERDGKDRECPMCRSVGPYVPLWLGCEAGFYVDAGPPTHAFSPCGHVCSEKTTAYWSQIPLPHGTHTFHAACPFCAHQLAGEQGYIRLIFQGPLD
modifications: FLAG tag
- Effect on Reporter Gene ([1]; NF-kB-dependent reporter gene activity, form of murine Pellino-1 expressed in COS cells): Stimulatory
- IL-1-induced NFkB-dependent reporter gene activity ([1]; preliminary experiment, COS-7 cells): partially inhibit

B2: wild-type Pellino-1: wild-type Pellino-1 polypeptide expressed in COS cells; murine sequence SEQ ID NO:2 (protein, listed as Mus musculus)
chain: MFSPDQENHPSKAPVKYGELIVLGYNGSLPNGDRGRRKSRFALFKRPKANGVKPSTVHIACTPQAAKAISNKDQHSISYTLSRAQTVVVEYTHDSNTDMFQIGRSTESPIDFVVTDTVPGSQSNSDTQSVQSTISRFACRIICERSPPFTARIYAAGFDSSKNIFLGEKAAKWKTSDGQMDGLTTNGVLVMHPRNGFTEDSKPGIWREISVCGNVFSLRETRSAQQRGKMVEIETNQLQDGSLIDLCGATLLWRTAEGLSHTPTVKHLEALRQEINAARPQCPVGFNTLAFPSMKRKDVVDEKQPWVYLNCGHVHGYHNWGNKEERDGKDRECPMCRSVGPYVPLWLGCEAGFYVDAGPPTHAFSPCGHVCSEKTTAYWSQIPLPHGTHTFHAACPFCAHQLAGEQGYIRLIFQGPLD
- NFkB-dependent reporter gene activity ([1]; COS cells transfected with high concentrations of expressing construct): inhibitory effect
- IL-8 promoter-reporter gene activity [3]: stimulates

From patent US7169891B2, “Human pellino polypeptides” (Immunex Corporation, priority 2000, dated 2007)
